Data set [1] has as its target Bcl-2 (Homo sapiens, UniProt P10415). Nature of the data set: Immunoblot of Bcl-2 degradation in WI-38 fibroblast cells (Non-SnCs and IR-SnCs). Type of data set: cell-based. More on the design: degradation of Bcl-xl and Bcl-2 in non-senescent WI-38 fibroblast cells (Non-SnCs) treated with varying concentrations of 753b; endogenous in cells; host or cells: WI-38 fibroblasts (non-senescent and ionizing-radiation-induced senescent). The note with it: different concentrations, 16 h, dose-dependent. From the text: (§1) FIG. 2A depicts immunoblots showing degradation of Bcl-xl and Bcl-2 in non-senescent WI-38 fibroblast cells (Non-SnCs) treated with varying concentrations of 753b. 3-actin was used as a loading control. FIG. 2B depicts viability of Non-SnCs treated with varying concentrations of 753b or ABT263. FIG. 2C depicts immunoblots showing degradation of Bcl-xl and Bcl-2 in ionizing radiation-induced senescent WI-38 fibroblast cells (IR-SnCs) treated with varying concentrations of 753b. 3-actin was used as a loading control. FIG. 2D depicts viability of IR-SnCs treated with varying concentrations of 753b or ABT263. FIG. 2E depicts immunoblots showing degradation of Bcl-xl and Bcl-2 in human platelets treated with varying concentrations of 753b. FIG. 2F depicts viability of human platelets treated with varying concentrations of 753b or ABT263.
(§2) The potency of 753b in degrading Bcl-xl/2 was evaluated by immunoblots after the cells or platelets were treated with different concentrations of 753b for 16 h ([…]). 753b is more cytotoxic to IR-SnCs but less toxic to Non-SnCs and platelets. The viability of Non-SnCs, IR-SnCs and platelets was measured 72 hr (Non-SnCs and IR-SnCs) and 48 hr (platelets) after they were incubated with increasing concentrations of 753b or ABT263 compared to cells/platelets with vehicle.

Data set [2] relates to normal non-senescent HUVEC (Non-SnC HUVEC). Nature of the data set: Viability of Non-SnC HUVEC. The format is cell-based, human. The settings on record: 72 hr incubation; vs ABT263. On the procedure: FIGS. 3A to 3B depicts viability of non-SnC human umbilical vein endothelial cells (HUVEC) and IR-induced SnC HUVEC treated with varying concentrations of ABT263 (FIG. 3A) or 753b (FIG. 3B). FIGS. 3C to 3D depict viability of non-SnC renal epithelial cells (REC), IR-induced SnC REC, and replicative senescent REC treated with varying concentrations of ABT263 (FIG. 3C) or 753b (FIG. 3D).
The viability of Non-SnC HUVEC, Non-SnC REC, IR-SnC HUVEC, IR-SnC REC, and Rep-SnC REC was measured 72 hr after they were incubated with increasing concentrations of 753b or ABT263 compared to cells/platelets with vehicle.

The subject of data set [3] is senescent cells induced by STZ/HFD in the liver. Nature of the data set: Senescent cell clearance in livers of STZ/HFD mice (p16/p21 mRNA, SA-β-gal staining). The format is in vivo, C57BL6 mice. The note with it: 5 mg/kg twice a week IP. On the procedure:
GAPDH was used as a loading control. FIG. 6B depicts the relative expression of p16 and p21 at mRNA levels in the livers of STZ/HFD mice treated with 753b or vehicle control. *p<0.05. FIGS. 6C to 6D show senescence-associated beta-galactosidase (SA-β-gal) stained livers of STZ/HFD mice treated with vehicle control (FIG. 6C) or 753b (FIG. 6D). Scale bar: […].
Experimental design: C57BL6 mice were injected with Streptozotocin (STZ) at postnatal day 2 to induce diabetes and then fed with HFD from postnatal day 30 till the end of the experiments (FIG. 5). Half of the mice started receiving vehicle and the others receiving 753b (5 mg/kg) treatment on postnatal day 45 twice a week by IP injection till the end of the experiments. A group of the mice were euthanized at postnatal day 90 (or day 45 after the initiation of the treatment) for analysis of senescent cell accumulation and steatosis. Another group of the mice were euthanized at postnatal day 150 (or day 105 after the initiation of the treatment) for analysis of liver fibrosis and cancer.
753b effectively clears senescent cells induced by STZ/HFD in the liver. The liver tissues were collected from mice at postnatal day 90 (p90 or 45 days after treatment) for the analyses. […] Data were means±SD of triplicate experiments.

In data set [4] the target is T1, Bcl-xl (Homo sapiens, UniProt Q07817). Nature of the data set: Immunoblot of Bcl-xl degradation in human platelets. Type of data set: cell-based. More on the design: endogenous in cells; host or cells: human platelets. The settings on record: different concentrations, 16 h.
From the text: as §1, §2
(In general: Immunoblotting shows a protein as a band on a membrane.)

For data set [5], the target named is T1, Bcl-xl. Nature of the data set: Immunoblot of Bcl-xl degradation in HEK293T cells. The format is cell-based. More on the design: endogenous in cells. The settings on record: different concentrations for 16 h, or 1 μM for various time points. Here is the method: FIG. 1A depicts immunoblots showing degradation of Bcl-xl and Bcl-2 in HEK293T cells treated with various concentrations of 753b for 16 hours. FIG. 1B depicts immunoblots showing degradation of Bcl-xl and Bcl-2 in HEK293T cells treated with 1 μM 753b for various durations. 3-actin was used as a loading control.
The potency of 753b in degrading Bcl-xl/2 was evaluated in 293T cells by immunoblots after the cells were treated with different concentrations of 753b for 16 h (FIG. 1A) or after the cells were treated with 1 μM 753b for various time points as indicated (FIG. 1B). Representative immunoblots are shown, and β-actin was used as a loading control.

Bcl-2, sequence (P10415 whole entry): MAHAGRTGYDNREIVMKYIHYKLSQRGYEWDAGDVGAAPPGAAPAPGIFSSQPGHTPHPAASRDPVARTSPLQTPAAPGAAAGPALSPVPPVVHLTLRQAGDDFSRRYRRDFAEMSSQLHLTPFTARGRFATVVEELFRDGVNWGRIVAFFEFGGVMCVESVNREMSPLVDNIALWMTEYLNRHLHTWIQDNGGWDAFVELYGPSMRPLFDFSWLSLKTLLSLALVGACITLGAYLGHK
T1 sequence (Q07817 whole entry): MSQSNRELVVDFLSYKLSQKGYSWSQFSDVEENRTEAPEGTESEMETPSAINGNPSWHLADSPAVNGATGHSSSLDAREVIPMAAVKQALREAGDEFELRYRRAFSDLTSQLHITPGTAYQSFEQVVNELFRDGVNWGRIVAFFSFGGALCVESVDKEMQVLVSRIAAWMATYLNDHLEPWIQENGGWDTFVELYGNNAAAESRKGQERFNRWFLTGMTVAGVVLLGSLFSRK

For the compound `Cc1ncsc1-c1ccc([C@H](C)NC(=O)[C@@H]2C[C@@H](O)CN2C(=O)[C@@H](NC(=O)CCCCCCC(=O)N2CCN(C[C@]3(C)CCC(c4ccc(Cl)cc4)=C(CN4CCN(c5ccc(C(=O)NS(=O)(=O)c6ccc(N[C@H](CCN7CCOCC7)CSc7ccccc7)c(S(=O)(=O)C(F)(F)F)c6)cc5)CC4)C3)CC2)C(C)(C)C)cc1` [Compound 753b], the “Bcl-2 degradation in IR-SnCs” value in data set [1] (IR-induced senescent WI-38 fibroblast cells) is “degrades Bcl-xl and Bcl-2 in Non-SnCs and IR-SnCs”. Besides, the “Bcl-2 degradation in Non-SnCs” value in data set [1] (non-senescent WI-38 fibroblast cells) was “degrades Bcl-xl and Bcl-2 in Non-SnCs and IR-SnCs”. In addition, in data set [2], the “Toxicity (viability) to Non-SnC HUVEC compared with ABT263” value was “less toxic”. Also, the “Senescent cell burden in the liver (SA-β-gal staining)” value in data set [3] (postnatal day 90) is “reduced senescent cell burden”. Also, in data set [3] (postnatal day 90, Q-RT-PCR), the “p16 mRNA level in the liver” value is “inhibited upregulation” and the “p21 mRNA level in the liver” value is given as “inhibited upregulation”. For the same compound, the “Bcl-xl degradation in human platelets” value in data set [4] was “not in human platelets”. In data set [5], the Bcl-xl degradation entry was “degrades Bcl-xl and Bcl-2 in a dose- and time-dependent manner”.
